This is an account of results in patent US5212171A, “Pesticidal heterocyclic compounds” (priority 1990, dated 1993).

For orientation: mortality means the share of the test organisms that died.

Structures are written as SMILES.

The first test deals with Spodoptera littoralis. Description: whole plant or invertebrate. The class given is in vivo, Spodoptera littoralis (Egyptian cotton leafworm). As to conditions: 168 h, initial test concentration of 0.1% w (1000 ppm), 7 days, read-out: mortality grade S.l. The method, then: (§1) Insecticidal activity of compounds of general formula I was assessed against the following pests: […]
Spodoptera littoralis (Egyptian cotton leafworm)
The test methods employed for each species appear below. In each test, unless otherwise stated, solutions or suspensions of test compound were made up over a range of concentrations in water (initially 0.1% w) containing 10%w acetone and 0.025% w "TRITON X-100" (trade mark) surface active agent (the condensation product of ethylene oxide with an alkyl phenol). These solutions were sprayed at a rate equivalent to 340 liters per hectare (3.4×10^-5 m^3 /m^2) onto Petri dishes containing either test species per se or diet onto which test species were subsequently introduced, as indicated. In some assays leaf discs infested with test species were sprayed whilst other assays involved the spraying of plants which were infested subsequently with test species after the spray solution had dried. […]
Mortality assessments were made as indicated below, in terms of percentage mortality figures. In each test a LC50 (the dosage of active material required to kill half of the test species) for the compound was calculated from the mortality figures and compared with the corresponding LC50 for a standard insecticide, ethyl parathion, in the same test. The results are expressed as toxicity indices thus: [formula] […]
`O=C(NC(=O)c1c(F)cccc1F)Nc1ccc2c(c1)COC(c1ccc(F)cc1F)S2` (centres unmarked) [Example 108]: the mortality at 1000 µg/mL is 70 to 100%.

In the case of `O=C(NC(=O)c1c(F)cccc1F)Nc1ccc2c(c1)COC(c1c(Cl)cccc1Cl)S2` (centres unmarked) [Example 113], the mortality at 1000 µg/mL was in the range of 70 to 100%.

For a further test, the system named is Tetranychus urticae. Description: Acaricidal activity (mite life cycle), Tetranychus urticae. It is filed as in vivo, Tetranychus urticae (glasshouse red spider mite). As to conditions: larvae on leaf discs sprayed at 340 liters per hectare; emergence of adults after 7 days. The protocol: Acaricidal activity of some compounds of formula I was assessed, employing adult female glasshouse red spider mites, Tetranychus urticae (T.u.), by the following procedure.
2 cm diameter leaf discs cut from the leaves of French bean plants were placed, underside uppermost, on 5.5 cm diameter filter papers, kept moist by a cotton wool wick dipped in water.
Each leaf disc was infested with 25 to 30 adult female mites which were removed after 6 hours, leaving bout 50 eggs on each disc. Within 5 days the eggs hatched. The freshly emerged larvae on the leaf discs were sprayed with solutions of test compound made up as in Example 156 above, at a rate equivalent to 340 liters per hectare (3.4×10^-5 m^3 /m^2).
The discs were thereafter kept under normal laboratory conditions (23° C.±2° C., fluctuating humidity and 16 hours day length). After 7 days assessment was made of the number of mites emerging as adults.
Turning to `O=C(NC(=O)c1c(F)cccc1F)Nc1ccc2c(c1)COC(c1ccc(Cl)cc1Cl)O2` (centres unmarked) [Example 82], the “LC50 (% active ingredient in spray)” value is 0.00023 % active ingredient in spray.

As for `O=C(NC(=O)c1c(F)cccc1F)Nc1ccc2c(c1)COC(c1c(Cl)cccc1Cl)O2` (centres unmarked) [Example 84], the “LC50 (% active ingredient in spray)” value is 0.00036 % active ingredient in spray.

Regarding `O=C(NC(=O)c1c(F)cccc1F)Nc1ccc2c(c1)COC(c1ccc(C(F)(F)F)cc1Cl)O2` (centres unmarked) [Example 85], the “LC50 (% active ingredient in spray)” value is on record as 0.00031 % active ingredient in spray.

With `O=C(NC(=O)c1c(F)cccc1F)Nc1ccc2c(c1)COC(c1ccccc1Br)O2` (centres unmarked) [Example 87], the “LC50 (% active ingredient in spray)” value was 0.0029 % active ingredient in spray.

Take `O=C(NC(=O)c1c(F)cccc1F)Nc1ccc2c(c1)COC(c1cccc(Cl)c1Cl)O2` (centres unmarked) [Example 92]: the “LC50 (% active ingredient in spray)” value was 0.085 % active ingredient in spray.

As for `O=C(NC(=O)c1c(F)cccc1F)Nc1ccc2c(c1)COC(c1ccccc1C(F)(F)F)O2` (centres unmarked) [Example 93], the “LC50 (% active ingredient in spray)” value was 0.00022 % active ingredient in spray.

Turning to `O=C(NC(=O)c1c(F)cccc1F)Nc1ccc2c(c1)OC(c1ccc(C(F)(F)F)cc1)O2` (centres unmarked) [Example 134], the “LC50 (% active ingredient in spray)” value was 0.09 % active ingredient in spray.

Consider `O=C(NC(=O)c1c(F)cccc1F)Nc1ccc2c(c1)SC(c1ccc(Cl)cc1Cl)O2` (centres unmarked) [Example 142, N-[[[2-(2,4-dichlorophenyl)-1,3-benzoxathiol-5-yl]amino]carbonyl]-2,6-difluorobenzamide], for which the “LC50 (% active ingredient in spray)” value is given as 0.0015 % active ingredient in spray.

As to `O=C(NC(=O)c1c(F)cccc1F)Nc1ccc2c(c1)SC(c1ccc(Cl)c(Cl)c1)O2` (centres unmarked) [Example 145], the “LC50 (% active ingredient in spray)” value is listed as 0.053 % active ingredient in spray.

With `O=C(NC(=O)c1c(F)cccc1F)Nc1ccc2c(c1)SC(c1ccc(F)cc1F)O2` (centres unmarked) [Example 147], the “LC50 (% active ingredient in spray)” value is given as 0.05 % active ingredient in spray.

A further test relates to Trialeurodes vaporariorum. Description: whole plant or invertebrate. The class given is in vivo, Trialeurodes vaporariorum (greenhouse whitefly). The note with it: 144 h, initial test concentration of 0.1% w (1000 ppm), 6 days, read-out: mortality grade T.v. The method, then:
as §1
Trialeurodes vaporariorum (greenhouse whitefly)
The test methods employed for each species appear below. In each test, unless otherwise stated, solutions or suspensions of test compound were made up over a range of concentrations in water (initially 0.1% w) containing 10%w acetone and 0.025% w "TRITON X-100" (trade mark) surface active agent (the condensation product of ethylene oxide with an alkyl phenol). These solutions were sprayed at a rate equivalent to 340 liters per hectare (3.4×10^-5 m^3 /m^2) onto Petri dishes containing either test species per se or diet onto which test species were subsequently introduced, as indicated. In some assays leaf discs infested with test species were sprayed whilst other assays involved the spraying of plants which were infested subsequently with test species after the spray solution had dried. The tests were all conducted under normal insectary conditions (23° C.±2° C., fluctuating humidity and light).
Mortality assessments were made as indicated below, in terms of percentage mortality figures. In each test a LC50 (the dosage of active material required to kill half of the test species) for the compound was calculated from the mortality figures and compared with the corresponding LC50 for a standard insecticide, ethyl parathion, in the same test. The results are expressed as toxicity indices thus: [formula] (i) Spodoptera littoralis (7 day)(Sl 7D) Test solutions were sprayed as indicated above onto Petri dishes containing a nutritious diet for Egyptian cotton leafworm larvae. When the spray deposit had dried, each dish was infested with ten 2nd instar larvae. Mortality assessments were made 7 days after spraying.
(iii) Trialeurodes vaporariorum (Tv)
French bean plants (Phaseolus vulgaris) with two fully expanded leaves were placed in a breeding culture of T.vaporariorum, also on French bean plants, which were then disturbed to ensure resettlement on the introduced plants. During the subsequent 24 hour period, eggs were deposited and kept at 27° C., with 14 hours photoperiod. All adult whiteflies were then carefully removed, leaving egg samples of a known age. After eight days the majority of eggs had hatched. Leaf discs containing the newly hatched nymphs were then cut from the leaves and transferred to moist filter paper. The discs were examined under a low-powered microscope to determine the exact number of 1st instar nymphs per disc and to remove any unhatched eggs. On average, 70-100 nymphs were found per disc. The discs were transferred into Petri dishes and sprayed with test solutions as described above. After 6 days percentage mortalities were assessed.
Consider `O=C(NC(=O)c1c(F)cccc1F)Nc1ccc2c(c1)COC(c1ccccc1Cl)O2` (centres unmarked) [Example 80], for which the mortality at 1000 µg/mL was in the range of 40 to 69%.

Regarding `O=C(NC(=O)c1c(F)cccc1F)Nc1ccc2c(c1)COC(c1ccc(Cl)cc1)O2` (centres unmarked) [Example 81], the mortality at 1000 µg/mL was 40 to 69%.

With `O=C(NC(=O)c1c(F)cccc1F)Nc1ccc2c(c1)COC(c1ccc(Cl)c(Cl)c1)O2` (centres unmarked) [Example 83], the mortality at 1000 µg/mL was 40 to 69%.

Take `O=C(NC(=O)c1c(F)cccc1F)Nc1ccc2c(c1)COC(c1c(Cl)cccc1Cl)O2` (centres unmarked) [Example 84]: the mortality at 1000 µg/mL lay in the range of 40 to 69%.

On to `O=C(NC(=O)c1c(F)cccc1F)Nc1ccc2c(c1)COC(c1ccccc1Br)O2` (centres unmarked) [Example 87], for which the mortality at 1000 µg/mL lay within 40 to 69%.

Consider `O=C(NC(=O)c1c(F)cccc1F)Nc1ccc2c(c1)COC(c1ccc(C(F)(F)F)cc1)O2` (centres unmarked) [Example 88], for which the mortality at 1000 µg/mL is 40 to 69%.

`O=C(NC(=O)c1c(F)cccc1F)Nc1ccc2c(c1)COC(c1ccc(OC(F)(F)F)cc1)O2` (centres unmarked) [Example 91]: the mortality at 1000 µg/mL is 40 to 69%.

Take `O=C(NC(=O)c1c(F)cccc1F)Nc1ccc2c(c1)CSC(c1ccccc1F)O2` (centres unmarked) [Example 96]: the mortality at 1000 µg/mL lay in the range of 40 to 69%.

With `O=C(NC(=O)c1c(F)cccc1F)Nc1ccc2c(c1)CSC(c1ccc(Cl)cc1Cl)O2` (centres unmarked) [Example 98], the mortality at 1000 µg/mL was in the range of 40 to 69%.

For the compound `O=C(NC(=O)c1c(F)cccc1F)Nc1ccc2c(c1)CSC(c1c(Cl)cccc1Cl)O2` (centres unmarked) [Example 99], the mortality at 1000 µg/mL lay within 40 to 69%.

Take `O=C(NC(=O)c1c(F)cccc1F)Nc1ccc2c(c1)CSC(c1ccc(F)cc1F)O2` (centres unmarked) [Example 100]: the mortality at 1000 µg/mL fell in the range of 40 to 69%.

As for `Cc1ccc(C2Oc3ccc(NC(=O)NC(=O)c4c(F)cccc4F)cc3CS2)cc1` (centres unmarked) [Example 102], the mortality at 1000 µg/mL lay within 40 to 69%.

As to `O=C(NC(=O)c1c(F)cccc1F)Nc1ccc2c(c1)CSC(c1ccccc1C(F)(F)F)O2` (centres unmarked) [Example 103], the mortality at 1000 µg/mL fell in the range of 40 to 69%.

As to `O=C(NC(=O)c1c(F)cccc1F)Nc1ccc2c(c1)CSC(c1ccccc1)O2` (centres unmarked) [Example 104], the mortality at 1000 µg/mL was 40 to 69%.

As to `O=C(NC(=O)c1c(F)cccc1F)Nc1ccc2c(c1)COC(c1ccccc1C(F)(F)F)S2` (centres unmarked) [Example 112], the mortality at 1000 µg/mL fell in the range of 40 to 69%.

For `O=C(NC(=O)c1c(F)cccc1F)Nc1ccc2c(c1)COC(c1c(Cl)cccc1Cl)S2` (centres unmarked) [Example 113], the mortality at 1000 µg/mL lay within 40 to 69%.

As for `O=C(NC(=O)c1c(F)cccc1F)Nc1ccc2c(c1)COC(c1ccccc1Br)S2` (centres unmarked) [Example 115], the mortality at 1000 µg/mL is 70 to 100%.

Turning to `Cc1ccccc1C1OCc2cc(NC(=O)NC(=O)c3c(F)cccc3F)ccc2S1` (centres unmarked) [Example 116], the mortality at 1000 µg/mL is 40 to 69%.

As for `O=C(NC(=O)c1c(F)cccc1F)Nc1ccc2c(c1)OC(c1ccccc1)O2` (centres unmarked) [Example 125], the mortality at 1000 µg/mL fell in the range of 40 to 69%.

Regarding `O=C(NC(=O)c1c(F)cccc1F)Nc1ccc2c(c1)OC(c1ccccc1Cl)O2` (centres unmarked) [Example 126], the mortality at 1000 µg/mL lay within 40 to 69%.

As for `O=C(NC(=O)c1c(F)cccc1F)Nc1ccc2c(c1)OC(c1cccc(Cl)c1)O2` (centres unmarked) [Example 127], the mortality at 1000 µg/mL was in the range of 40 to 69%.

For the compound `O=C(NC(=O)c1c(F)cccc1F)Nc1ccc2c(c1)OC(c1ccc(Cl)cc1)O2` (centres unmarked) [Example 128], the mortality at 1000 µg/mL was in the range of 40 to 69%.

For `O=C(NC(=O)c1c(F)cccc1F)Nc1ccc2c(c1)OC(c1ccc(F)cc1F)O2` (centres unmarked) [Example 135], the mortality at 1000 µg/mL lay within 40 to 69%.

`CCOC(=O)CC1(c2ccccc2)Oc2ccc(NC(=O)NC(=O)c3c(F)cccc3F)cc2O1` (centres unmarked) [Example 140]: the mortality at 1000 µg/mL lay in the range of 40 to 69%.

For `O=C(NC(=O)c1c(F)cccc1F)Nc1ccc2c(c1)SC(c1ccccc1F)O2` (centres unmarked) [Example 143], the mortality at 1000 µg/mL fell in the range of 40 to 69%.

Take `CC1(c2ccc(Cl)c(Cl)c2)Oc2ccc(NC(=O)NC(=O)c3c(F)cccc3F)cc2S1` (centres unmarked) [Example 152]: the mortality at 1000 µg/mL lay within 40 to 69%.
